Source: US20150259371A1, “METHODS AND COMPOUNDS FOR INHIBITING GLYCOSYLTRANSFERASES” (SIMON FRASER UNIVERSITY, priority 2010, published 2015)
Entries after “also recorded” stand apart in the source; their conditions may differ.

Key:
[1] = tested on: O-GlcNAc levels in COS-7 cells; assay: Western blot of O-GlcNAc levels (CTD110.6) in treated COS-7 cells; type: cell-based, African green monkey
Protocol: Cell culture: Cells were grown in an incubator at 37° C. and 5% CO2 atmosphere. Media and serum were purchased from Invitrogen. COS-7 cells were cultured in Dulbecco's modified Eagle's medium (DMEM) with 5% fetal bovine serum (FBS), and were typically 80-100% confluent prior to experimentation. HepG2, SK-N-SH, and EMEG32^−/− cells were cultured in Dulbecco's modified Eagle's medium (DMEM) with 5% fetal bovine serum (FBS), CHO cells in DMEMF-12 with 5% FBS and PC12 cells in DMEM with 5% FBS and 5% horse serum. Prior to experimentation, PC12 cells were plated at a density of 3-4×10^5 cells10 cm plate, which had been pre-treated with 5 μgcm^2 rat tail collagen (BD Biosciences). Cells were differentiated in DMEM containing 1% horse serum, in the presence of 2.5S mouse nerve growth factor (Chemicon) at a final concentration of 25 ng mL^−1, for 4-5 days prior to treatment. Other cell lines were 80-100% confluent prior to treatment. Following treatment with (Ac-)5SGlcNAc, using various conditions, cells were washed gently with PBS, lysed in SDS loading buffer and boiled for 10 minutes. Mouse hybridoma cells (obtained from the Developmental Studies Hybridoma Bank; antibody E7 for (:1-tubulin) were cultured in RPMI40 with 10% FBS. Prior to treatment with Ac-5SGlcNAc, hybridoma cells were cultured for 2 days in RPMI40 with 5% FBS, and during treatment in RPMI40 with no serum. Cells were collected, centrifuged (800 x g, 5 min) and the supernatant removed. Cells were washed with PBS, centrifuged, the pellet resuspended in SDS loading buffer and boiled. The supernatant after centrifugation, which contained the IgG antibody produced by the cells, was used for immunoprecipitation (see below for details).
Westernlectin blots: Samples were run on 10% SDS polyacrylamide gels and transferred onto nitrocellulose membranes (Biorad). Membranes were blocked for 1 h in PBS containing 0.1% Tween-20 (PBS-T) containing 1% (unless otherwise stated) bovine serum albumin (BSA), and probed with the appropriate primary antibody or lectin in 1% BSA in PBS-T overnight at 4° C. Blots were washed for 1 hr with PBS-T, and blocked for a further 30 min with 1% BSA in PBS-T at room temperature. They were then probed with the appropriate horseradish peroxidise (HRP)-conjugated secondary antibodyprobe in 1% BSA in PBS-T at room temperature for 1 h, followed by washing in PBS-T for 1 h. Blots were developed with SuperSignal West Pico Chemiluminescent Substrate (Pierce) and exposed to CL-XPosure film (Pierce). Densitometry was performed using ImageQuant 5.2 (Molecular Dynamics), and fits to the data were made using GRAFIT^41.
Antibodieslectins: O-GlcNAc levels were assessed primarily using CTD110.6 (Covance), but RL2 (Abcam) and HGAC85 (Abcam) were also tested. Actin was probed using JLA20 (Developmental Studies Hybridoma Bank). OGA levels were assessed using a polyclonal anti-OGA antibody which was a kind gift from Dr. Gerald Hart and OGT levels using H-300 (Santa Cruz Biotechnology). nup62 was probed using mAb 414 (Covance). Secondary antibodies employed (HRP-conjugated goat anti-mouse IgM, goat anti-mouse IgG, goat anti-chicken IgY and goat anti-rabbit IgG) were obtained from Santa Cruz Biotechnology. Biotinylated-ConA, PHA-L, SNA and MAA were purchased from EY Laboratories, and biotinylated-GNA from Vector Laboratories. HRP-conjugated streptavidin (Pierce) was used as a probe for the biotinylated lectins.
Analogues (9, 10, 17-41) were tested in COS-7 cells, dosed at a final concentration of 50 μM in DMSO for 24 h. Following treatment, cells were washed with PBS, harvested into SDS-PAGE loading buffer and analyzed by western blot using standard procedures; blots were probed with the anti-O-GlcNAc antibody (CTD 110.6).

[2] = tested on: O-GlcNAc levels in different cell lines (COS-7, CHO, SK-N-SH, HepG2, PC12, mouse hybridoma, EMEG32-/-); assay: Western blot of O-GlcNAc levels in various cell lines; type: cell-based; settings: 50 μM (100 μM for PC12), 24 h; listed as Ac-5SGlcNAc
Protocol: FIG. 2L. Western blots of cell lysates from different cell lines following no (C), Ac-GlcNAc (G) or Ac-5SGlcNAc (5SG) administration at 50 μM (or 100 μM for PC12 cells) for 24 h. Upper panel, probed with anti-O-GlcNAc antibody (CTD110.6); lower panel, anti-actin antibody. Cell lines used: COS-7 (African green monkey kidney cell line), CHO (Chinese hamster ovary cell line), SK-N-SH (human neuroblastoma cell line), HepG2 (human liver carcinoma cell line), PC12 (rat adrenal medulla pheochromocytoma cell line, which terminally differentiate upon nerve growth factor treatment), mouse hybridoma cell line and EMEG32^−/− (mouse embryonic fibroblasts deficient in glucosamine-6-phosphate acetyltransferase).
Cell culture: Cells were grown in an incubator at 37° C. and 5% CO2 atmosphere. Media and serum were purchased from Invitrogen. COS-7 cells were cultured in Dulbecco's modified Eagle's medium (DMEM) with 5% fetal bovine serum (FBS), and were typically 80-100% confluent prior to experimentation. HepG2, SK-N-SH, and EMEG32^−/− cells were cultured in Dulbecco's modified Eagle's medium (DMEM) with 5% fetal bovine serum (FBS), CHO cells in DMEMF-12 with 5% FBS and PC12 cells in DMEM with 5% FBS and 5% horse serum. Prior to experimentation, PC12 cells were plated at a density of 3-4×10^5 cells10 cm plate, which had been pre-treated with 5 μgcm^2 rat tail collagen (BD Biosciences). […]

CHO cells = assay: Cell proliferation growth curves over 5 days, CHO cells; type: cell-based, Chinese hamster; settings: 50 μM
Protocol: (A) Cell proliferation curves over the course of 5 days for CHO cells following no (circles), 50 μM Ac-GlcNAc (squares) or 50 μM Ac-5SGlcNAc (triangles) treatment. The error bars indicate the deviation from the mean for triplicate measurements. […] Upper panel, probed with anti-O-GlcNAc antibody (CTD110.6); lower panel, probed with anti-actin antibody. (B) Cell proliferation curves over the course of 5 days for EMEG heterozygous mouse embryonic fibroblast cells following no (circles), 50 μM Ac-GlcNAc (squares) or 50 μM Ac-5SGlcNAc (triangles) treatment. The error bars indicate the deviation from the mean for triplicate measurements. […] Upper panel, probed with anti-O-GlcNAc antibody (CTD110.6); lower panel, probed with anti-actin antibody. (C) Western blots of CHO cell lysates following no (C) or Ac-5SGlcNAc administration at 50 μM for 4 days. Probed with (from top to bottom) anti-Spl antibody, anti O-GlcNAc (CTD110.6) antibody and anti-actin antibody. Full blot of the anti-Sp 1 is shown in panel (d). […]
Cellular responses to Ac-5SGlcNAc (9) treatment and consequent decreases in O-GlcNAc levels were evaluated. […] We quantitatively evaluated cell proliferation and established growth curves over the course of 5 days in both CHO and EMEG32 heterozygous mouse embryonic fibroblast cells treated with 50 μM Ac-5SGlcNAc (9), 50 μM Ac-GlcNAc (G), or vehicle (FIGS. 5A-B).

CC(=O)NC1C(OC(C)=O)SC(COC(C)=O)C(OC(C)=O)C1OC(C)=O [Compound 9, N-Acetyl-1,3,4,6-tetra-O-acetyl-α-D-5-thio-glucosamine]
O-GlcNAc levels on dosing for 5 days ([1]; 50 μM, 5 days): O-GlcNAc levels dropped in the first day and remained low
O-GlcNAc levels, time course ([1]; 50 μM, hours, listed as Ac-5SGlcNAc): almost no O-GlcNAc being detectable after 24 hours; also recorded: O-GlcNAc levels diminish to a low level by 24 h
effect on O-GlcNAc levels, dose response ([1]; 24 hours): decreased O-GlcNAc levels in a dose-dependent fashion
EC50 ([1]; Chlorocebus sabaeus, 24 h, densitometry of western blot, read-out: EC50 for reduction of O-GlcNAc levels): 5 µM
time for O-GlcNAc to return to basal levels after change to media without compound ([1]; after 50 μM for 24 h): ≤ 24 h
O-GlcNAc levels in the cell lines tested [2]: Various other cell lines showed equivalent responses; also recorded: near complete loss of O-GlcNAc in the cell lines tested
growth rate (CHO cells): indistinguishable from those of Ac-GlcNAc (G) and vehicle treated cells
